This is an account of results in article PMC12299903 (Pharmaceuticals, 2025).

In data set [1] the test system is Pseudomonas aeruginosa (ATCC27853). The data set is described as follows: Antibacterial assay, MIC (broth microdilution, resazurin). The note with it: Mueller-Hinton broth, CLSI M07-A9, 1:2 serial dilution from 128.5 μM, 37 °C 20 h, resazurin read-out, triplicate; conjugates dosed as peptide concentration. Format: cell-based. As for the experimental part: (§1) The peptide Lun-1 and the peptide-conjugated nanoparticles (Lun-EN and Lun-EC) were investigated against […] bacterial strains—Pseudomonas aeruginosa, Staphylococcus aureus, Acinetobacter, Escherichia coli, and Streptococcus agalactiae, all from American Type Culture Collection (Manassas, VA, USA). Details can be found in the SM. […]
(§2) phase at 35 °C and subsequently transferred to Mueller-Hinton broth according to the guidelines established by the M07 -A9 CLSI. Methods for the dilution antimicrobial susceptibility tests for b acteria that grow aerobically were from the Approved Standard—Ninth Edition. CLSI document M07 -A9. Wayne, PA: Clinical and Laboratory Standards Institute; 2012. Bacterial suspensions were adjusted to the turbidity equivalent to 0.5 McFarland standard ([…]), by spectrophotometric measurement at 625 nm (Bel Photonics S2000 UV, São Paulo, Brazil).
(§3) The suspension was then diluted 1:20, and 50 μL aliquots were distributed into 96-well flat-bottom microplates (Nümbrecht, Germany).
(§4) Chloramphenicol (30 μg·mL⁻¹; 92.8 μM) was used as standard drug and served as positive control for growth bacterial inhibition. Wells containing 50 μL of bacterial inoculum and 50 μL of sterile culture medium were used as negative controls. Free peptides were tested at a maximum concentration of 128.5 μM and diluted via serial dilution (1:2) up to seven times in Mueller–Hinton broth. For the nanoparticle– peptide conjugations concentration s were adjusted according to the degree of functionalization to ensure accurate dosing of the active peptide component.
(§5) Plates were incubated at 37 °C for 20 hours. After incubation, 30 μL of a 0.01% (w/v) resazurin solution (10-oxido -7 -oxophenoxazin-10 -ium -3 -olate; Sigma -Aldrich, St. Louis, MO, USA) was added to each well. Plates were protected from light and incubated for an additional 4 hours to allow colorimetric development. The tests whose bacteria did not develop a pink color after incubation (maintaining the blue coloration) were […]
(In general: Dilution methods test growth across graded concentrations, often in twofold steps.)

The subject of data set [2] is Staphylococcus aureus (ATCC29213). Described as above. It is filed as cell-based. Particulars: Mueller-Hinton broth, CLSI M07-A9, 1:2 serial dilution from 128.5 μM, 37 °C 20 h, resazurin read-out, triplicate; conjugates dosed as peptide concentration. As to the method: as §1, §2, §3, §4, §5
On the technique in general: The colour change of resazurin is a common sign of viable cells or microbes.

Data set [3] has as its system Streptococcus agalactiae (ATCC 29313). Described as above. Format: cell-based. The note with it: Mueller-Hinton broth, CLSI M07-A9, 1:2 serial dilution from 128.5 μM, 37 °C 20 h, resazurin read-out, triplicate; conjugates dosed as peptide concentration. As for the experimental part:
as §1, §2, §3, §4, §5

In data set [4] the test system is Acinetobacter (ATCC17978). The data set is described as above. The note with it: Mueller-Hinton broth, CLSI M07-A9, 1:2 serial dilution from 128.5 μM, 37 °C 20 h, resazurin read-out, triplicate; conjugates dosed as peptide concentration. Format: cell-based. As for the experimental part:
as §1, §2, §3, §4, §5

Data set [5] has as its system Escherichia coli (ATCC25922). The description is as above. It is filed as cell-based. Particulars: Mueller-Hinton broth, CLSI M07-A9, 1:2 serial dilution from 128.5 μM, 37 °C 20 h, resazurin read-out, triplicate; conjugates dosed as peptide concentration. As for the experimental part: as §1, §2, §3, §4, §5
Data set [6] has as its system trypsin. Put plainly: Proteolytic degradation by trypsin (HPLC). Particulars: trypsin 1:50 (w/w), 100 µM peptide, 20 mM Tris-HCl pH 8.0, 37 °C, time points 1 min to 4 h; for time to complete degradation by trypsin: HPLC-UV. Format: in vitro ADME. As to the method: Lunatin–AAAE and EAAA–lunatin and their nanoparticle-functionalized counterparts (NP-Lun-EN and NP-Lun-EC) were suspended in 20 mM Tris-HCl buffer (pH 8.0) at a final peptide concentration of 100 µM and exposed to enzymatic digestion with trypsin at 37 °C, using an enzyme-to-substrate ratio of 1:50 (w/w) in a final volume of 1000 µL. Incubation was performed using an AccuBlock™ Digital Dry Bath (Ciencor),. Aliquots of 200 µL were withdrawn at different time points (1 min, 5 min, 10 min, 30 min, 1 h, 2 h, 3 h, and 4 h), and enzymatic activity was quenched by adding 40 µL of 1 M HCl. Samples were centrifugated and supernatant filtered in whatman® alumina anodisc filter discs 0.02 μm pore size, previously injected in a high-performance liquid chromatography system (Varian® ProStar 315 system equipped with a UV detector), using an Agilent AdvanceBio Peptide Mapping column (4.6 × 150 mm), and 50 µL injection loop.

Data set [7] concerns trypsin. The data set is described as follows: trypsin in 20 mM Tris-HCl buffer (pH 8.0). The note with it: 37 °C, up to 4 h.
Another data set is described as follows: Zeta potential. It is filed as physicochemical. The note with it: 0.2 mg·mL^−1 in 10 mM Tris-HCl, pH 8.0, 100 mM NaCl; 25 °C; mean of triplicate ± SD. As for the experimental part:
Zeta potential and Hydrodynamic Diameter measurements were performed at room temperature (or 25 °C) on a Zetasizer Nano instrument (Malvern® ZS model BI-900, Worcestershire, UK). A 700 µL Malvern® cuvette (model DTS1061) was used for the analysis. The measurements were conducted, utilizing monochromatic light scattering (10 mW Ne laser, λ = 632.4 nm), with the light intensity measured at a 90° angle. Zeta potential (z) were carried out at 0.2 mg·mL^−1 of NP, NP-OH, NP-NH2, NP-Lun-EN, and NP-Lun-EC dispersed in a 10 mM Tris-HCl buffer, pH 8.0, containing 100 mM NaCl.

The nature of data set [8]: Circular dichroism, secondary structure content. Particulars: 10 mM Tris-HCl, 100 mM NaCl, pH 8.5, 25 µM peptide, 25 °C. Format: physicochemical. As to the method:
Circular dichroism spectra were recorded using a JASCO J-815 spectrometer (Easton, MD, USA) equipped with a Peltier Jasco model PTC-423 L temperature control system. Spectra were obtained using a quartz cuvette with a 1 cm optical path at a temperature of 25 °C, covering a wavelength range from 190 to 260 nm with eight consecutive scans per sample. The scan speed was set at 100 nm/min and the response time was 4 s. The bandwidth was 1 nm, and ellipticity readings were taken every 0.2 nm. The Lun-1 (25 µM), NP (0.155 mg·mL^−1), NP-Lun-EN (0.17 mg·mL^−1–25 µM of peptide concentration), and NP-Lun-EC (0.18 mg·mL^−1–25 µM of peptide concentration) samples were (corresponding to 25 µM of peptide in NP-Lun-EN and NP-Lun-EC) suspended in 10 mM Tris-HCl buffer solution at pH 8.5 containing 100 mM NaCl or in 200 µM POPC:POPG (3:1, mol:mol) LUVs suspended in the same buffer solution. Data processing and deconvolution calculations to obtain the contents of secondary structures were carried out using the CDpro® program.
For orientation: CD spectra are sensitive to the conformation of chiral molecules.

Data set [9] can be described thus: Differential scanning calorimetry of model membranes. The note with it: for Tm of LUVs: 3 mM DMPC:DMPG (3:1) LUVs, 10 mM Tris-HCl pH 7.5, pure LUVs 23.1, triplicate, ± 0.2 °C. As to the method: The phase transition profile of 1,2-dimyristoyl-sn-glycero-3-phosphocholine and 1,2-dimyristoyl-sn-glycero-3-phosphocholine/1,2-dimyristoyl-sn-glycero-3-phosphoglycerol (DMPC:DMPG. 3:1, mol:mol) at 3 mM was investigated in the absence and presence of Lun-1, NP, NP-Lun-EN, and NP-Lun-EC at different concentrations (Table S1, using a VP-DSC® microcalorimeter (Malvern® Instruments, Malvern, UK). All mixtures of LUVs and peptide–LUVs were prepared immediately prior to the experiments. The samples were pre-degassed and tested against a 10 mM Tris-HCl buffer (pH 7.5) containing 50 mM NaCl in the reference cell. Buffer-only experiments were also performed in all cells for subsequent background subtraction. Each sample underwent three successive heating scans in the temperature range of 10–35 °C at a heating rate of 1.0 °C.min^−1. Data analyses were performed using Microcal Origin® DSC software version 5.0 (GE HealthCare-Microcal®, Amherst, MA, USA), which was employed to subtract the blank and determine the transition temperature (Tm) and transition enthalpy (DtransH) from the gel phase to the liquid crystalline phase.

Values after ≈ are worked out from the molar mass of the structure shown. “Also recorded” adds a separate entry of the source. Where a SMILES comes first, the peptide text is derived from it. Where no end group is shown, it is not given here.

In general, MIC refers to the lowest concentration that inhibits growth of the organism. On to `CC[C@H](C)[C@H](NC(=O)[C@@H](N)Cc1ccccc1)C(=O)NCC(=O)NCC(=O)N[C@@H](CC(C)C)C(=O)N[C@@H](CC(C)C)C(=O)N[C@@H](CCCCN)C(=O)N[C@H](C(=O)N[C@@H](CC(C)C)C(=O)N[C@H](C(=O)N[C@@H](CO)C(=O)N[C@@H](Cc1ccccc1)C(=O)N[C@@H](Cc1ccccc1)C(N)=O)[C@@H](C)O)[C@@H](C)O` [Lun-1, lunatin-1] (H-FIGGLLKTLTSFF-NH2), for which the minimum inhibitory concentration (MIC) in data set [1] stood at 32.1 µM (≈ 46.3 µg/mL); in data set [2], 8.0 µM (≈ 11.5 µg/mL); in [3] it was 16.0 µM (≈ 23.1 µg/mL); in data set [4], 32.1 µM (≈ 46.3 µg/mL); in [5], 64.2 µM (≈ 92.6 µg/mL).
For the compound `CC[C@H](C)[C@H](NC(=O)[C@@H](N)Cc1ccccc1)C(=O)NCC(=O)NCC(=O)N[C@@H](CC(C)C)C(=O)N[C@@H](CC(C)C)C(=O)N[C@@H](CCCCN)C(=O)N[C@H](C(=O)N[C@@H](CC(C)C)C(=O)N[C@H](C(=O)N[C@@H](CO)C(=O)N[C@@H](Cc1ccccc1)C(=O)N[C@@H](Cc1ccccc1)C(=O)N[C@@H](C)C(=O)N[C@@H](C)C(=O)N[C@@H](C)C(=O)N[C@@H](CCC(=O)O)C(N)=O)[C@@H](C)O)[C@@H](C)O` [Lun-EC] (H-FIGGLLKTLTSFFAAAE-NH2), in the data set with trypsin [6], the “time to complete degradation by trypsin” value was 10 min.
On the same count and under the same terms, next, `CC[C@H](C)[C@H](NC(=O)[C@H](Cc1ccccc1)NC(=O)[C@H](C)NC(=O)[C@H](C)NC(=O)[C@H](C)NC(=O)[C@@H](N)CCC(=O)O)C(=O)NCC(=O)NCC(=O)N[C@@H](CC(C)C)C(=O)N[C@@H](CC(C)C)C(=O)N[C@@H](CCCCN)C(=O)N[C@H](C(=O)N[C@@H](CC(C)C)C(=O)N[C@H](C(=O)N[C@@H](CO)C(=O)N[C@@H](Cc1ccccc1)C(=O)N[C@@H](Cc1ccccc1)C(N)=O)[C@@H](C)O)[C@@H](C)O` [Lun-EN] (H-EAAAFIGGLLKTLTSFF-NH2): 10 min.
Consider EAAAFIGGLLKTLTSFF-NH2 [Lun-EN], for which the fragment found result in the data set on trypsin [7] is on record as “TLTSFF, 1 min; also recorded: EAAAFIGGLLK, 1 min”.
On the same count and under the same terms, next, EAAAFIGGLLKTLTSFF-NH2 [NP-Lun-EN]: “TLTSFF, 2 h”.
With FIGGLLKTLTSFFAAAE-NH2 [Lun-EC], the fragment found result with trypsin [7] was “FIGGLLK, 1 min; also recorded: TLTSFFAAAE, 1 min”.
Same read-out and setting: next, FIGGLLKTLTSFFAAAE-NH2 [NP-Lun-EC]: “FIGGLLK, 2 h”.
Turning to Lun-1-AAAECterm-NP [NP-Lun-EC], in the data set “Zeta potential”, the ζ-potential result is “+5.8 ± 0.8 mV”. The “a-helical percentage (CD deconvolution)” value in data set [8] (in buffer, CDpro) is reported as 30%. In [8] (in buffer, CDpro), the “β-sheet percentage (CD deconvolution)” value turned out to be 40%. In addition, the “α-helix content (CD deconvolution)” value in data set [8] (in presence of 200 µM POPC:POPG (3:1) LUVs) amounted to 55%. The MIC in data set [1] came out at 32.1 µM; in [2], 16.0 µM; in data set [3], 16.0 µM; in [4] it was 40.0 µM; in [5], 48.0 µM. Further, the “time after which progressive degradation (cleavage fragment peaks) is observed with trypsin” value in the data set with trypsin [6] (HPLC-UV of filtered supernatant) is given as 2 h. For the same compound, the “Tm of LUVs” value in [9] (10 µM peptide) is 22.7 °C; in data set [9] (25 µM peptide), 22.0/22.0 °C; in [9] (50 µM peptide), 21.1 °C; in data set [9] (100 µM peptide), 19.8 °C. In addition, the “lowering of transition temperature (DTm)” value in data set [9] (DMPC:DMPG (3:1) LUVs, versus pure LUVs) was determined as 3.3 °C.
